Results as given in patent US9987307B2, “Tolerogenic dendritic cells, methods of producing the same, and uses thereof” (SOTIO A.S., priority 2014, dated 2018).
“Also recorded” adds a separate entry of the source.

Assays:
[1] = tested on: allogeneic T cells; assay: Allostimulatory assay (primary MLR, CFSE dilution); assay type: cell-based, human; conditions: compared to tDCs without inhibitor; day 6
Method: For primary MLR assays, allogeneic T cells (2×10^5) labelled with 5 μM carboxyfluorescein succinimidyl ester (CFSE, Invitrogen) were incubated with tolDC or cDC (2×10^4) in 96-well, round-bottom plates. T cell proliferation was determined by the sequential dilution of CFSE fluorescence of T cells, as detected by flow cytometry on day 6.
T cells were obtained from PBMC non-adherent fraction. tDCs or cDCs (2×104) were cultured with allogeneic T cells (2×105) in complete RPMI medium (Gibco) containing 5% human AB serum (Invitrogen). IL-2 (20 U/ml, PeproTech) was added on day 2, 5 and 7. For primary mixed lymphocyte reaction (MLR) assays, allogeneic T cells (2×105) labelled with 5 μM carboxyfluorescein succinimidyl ester (CFSE) (Invitrogen) were incubated with tDCs or cDCs (2×104). T cell proliferation was determined by the sequential dilution of CFSE fluorescence of T cells, as detected by flow cytometry on day 6. For detection of IFN-γ, IL-10 and IL-17A production by T cells, 2×10^4 tDCs or cDCs were cultured with 2×10^5 allogeneic T cells. Cytokine production was determined by intracellular staining by flow cytometry on day 6 (IFN-γ) and day 9 (IL-10). IL-17A production from cell culture supernatants was analyzed by ELISA on day 6.

[2] = tested on: tDCs; assay: IL-10 and IL-12 production of restimulated tDCs in the presence of inhibitors (ELISA); assay type: cell-based, human; conditions: restimulation with CC, LPS, polyI:C, CD40L, 24 h
Method: (§1) To induce maturation, DC were treated with vaccine grade monophosphoryl lipid A (MPLA) (2 μg/ml, Cayla-InvivoGen) on day 6 or on day 7. On day 7 or on day 8, DC were harvested, washed and functional assays were performed. Control DC (cDC) were cultured without tolerising factors. For restimulation assays, tolDC and cDC were extensively washed and recultured in complete RPMI 1640 medium (Gibco) in the absence of tolerising factors for 24-72 h, with or without lipopolysaccharide (LPS, 1 μg/ml, Sigma-Aldrich), poly I:C (25 μg/ml, Cayla-InvivoGen), CD40L (1000 ng/ml, Enzo) or a mixture of pro-inflammatory cytokines containing IL-1β (10 ng/ml), TNFα (10 ng/ml), IL-6 (10 ng/ml) and IFNγ (100 ng/ml) (all from R&D systems). Supernatant and cells were collected for further analysis. Signaling inhibitors were added 1 h before the start of experiments under the specified stimulation conditions. SB203580 (p38 MAPK inhibitor at 10 μM), SP600125 (JNK/SAPK inhibitor at 20 μM), PD98059 (ERK1/2 inhibitor at 20 μM), Bay 11-7082 (NF-κB inhibitor at 10 μM), Stattic (STAT3 inhibitor at 5 μM) and rapamycin (mTOR inhibitor at 100 nM) were obtained from Calbiochem and dissolved in DMSO.
(§2) Cell supernatants were harvested after 24 hours of DC stimulation and frozen at −80° C. until analysis. IL-10, IL-12p70, IL-6 and TNFα concentrations were determined in cell culture supernatants of activated DCs using Luminex assay (MILLIPLEX™ Human Cytokine/Chemokine Kit, Merck Millipore) and ELISA assay (DuoSet ELISA Kit, R&D systems) according to manufacturer's instructions.
(§3) Immature DCs were obtained from buffy coats of healthy donors as previously described [Palova-Jelinkova L, Rozkova D, Pecharova B, Bartova J, Sediva A, Tlaskalova-Hogenova H, Spisek R, Tuckova L: Gliadin fragments induce phenotypic and functional maturation of human dendritic cells. J Immunol 2005; 175:7038-7045]. […] Medium and cytokines were replenished on day 3. On day 6, DCs were harvested and seeded in 96-well plates (Nunc) at 1×10^6 cells/ml. On day 7, immature DCs were activated with vacci grade MPLA (2 μg/ml, Cayla-InvivoGen) for 24 hrs. To induce tDCs, DCs were treated with Dex on day 3 (1 μM, Medochemie) and Dex and VitD2-paricalcitol (1.5 ng/ml, Zemplar, Abbott Laboratories) on day 6. Control DCs (cDCs) were cultured without tolerising factors. For restimulation assays, tDCs and cDCs were washed and recultured in complete RPMI medium (Gibco) containing 5% human AB serum (Invitrogen) in the absence of tolerising factors for 24 h, with or without LPS (1 μg/ml, Sigma-Aldrich), polyI:C (25 μg/ml, Cayla-InvivoGen), megaCD40L™ (1000 ng/ml, Enzo Life Sciences) or mixture of pro-inflammatory cytokines containing IL-1β, TNF-α, IL-6 (all 10 ng/ml) and IFN-γ (100 ng/ml) (all from R&D systems). Signaling inhibitors were added 1 h before the start of experiments under the specified stimulation conditions. SB203580 (p38 MAPK inhibitor at 10 μM), SP600125 (JNK/SAPK inhibitor at 20 μM), PD98059 (ERK1/2 inhibitor at 20 μM), Bay 11-7082 (NF-κB inhibitor at 10 μM), Stattic (STAT3 inhibitor at 5 μM) and rapamycin (mTOR inhibitor at 100 nM) were obtained from Calbiochem and dissolved in dimethyl sulfoxide. Supernatants and cells were collected for further analysis.
(§4) Cell supernatants were harvested after 24 h of DC stimulation and frozen at −80° C. until analysis. IL-10, IL-12p70, TNF-α and TGF-β concentrations were determined using Luminex assay (MILLIPLEX™ Human Cytokine/Chemokine Kit, Merck Millipore) and ELISA assay (DuoSet ELISA Kit, R&D systems) according to the manufacturer's instructions. Cell supernatants were acidified before measuring TGF-β levels according to the manufacturer's instructions.
lactate, glucose and lactate dehydrogenase measurements: Concentrations of lactate and glucose in DC culture supernatants were measured with Glycolysis Cell-based assay kit (Cayman Chemicals) and Glucose colorimetric assay kit (BioVision), respectively. […]

[3] = tested on: tDCs; assay: ILT-3, PD-L1 and CD86 expression on restimulated tDCs in the presence of inhibitors (flow cytometry); assay type: cell-based, human; conditions: for CD86 expression in tDCs in the presence of inhibitor / ILT-3 and PD-L1 expression in tDCs in the presence of inhibitor: restimulation 24 h
Method: as §1
Cells were stained with fluorochrome-conjugated mAbs for 30 min at 4° C. in PBS, washed and analysed on LSRFortessa cell analyzer (BD Biosciences). Appropriate isotype controls were included. Data were analyzed using FlowJo software (Tree Star). DCs were gated according to the FSC, SSC and CD11c+ parameters for analysis. Dead cells were excluded from the analysis based on DAPI staining. For intracellular cytokine staining, T cells were stimulated with phorbol-12-myristate-13-acetate (PMA) (50 ng/ml, Sigma-Aldrich) plus ionomycin (1 μg/ml, Sigma-Aldrich) for 4-16 hours in the presence of Brefeldin A (5 μg/ml, BioLegend) before cell analysing. After stimulation, cells were washed, incubated in Fixation/Permeabilization Buffer (eBiosciences) for 30 min at 4° C., then washed in Permeabilization Buffer (eBiosciences) and stained with appropriate mAb for 30 min at 4° C.
as §3
Cells (2×10^5/well) were stained with fluorochrome-conjugated mAbs for 30 min at 4° C. in PBS, washed and analysed on LSR Fortessa cell analyzer (BD Biosciences). Appropriate isotype controls were included. Data were analyzed using FlowJo software (Tree Star). […]

[4] = tested on: glycolysis; assay: Metabolic quantification: lactate in DC supernatants; assay type: cell-based, human; conditions: pretreatment before restimulation, 24 h
Method: lactate, glucose and lactate dehydrogenase measurements: Concentrations of lactate and glucose in DC culture supernatants were measured with Glycolysis Cell-based assay kit (Cayman Chemicals) and Glucose colorimetric assay kit (BioVision), respectively. When indicated, glycolysis was suppressed by treatment with 10 mM 2-deoxyglucose (Sigma) 1 h prior exposition of DCs cultured in Cell Gro into RPMI, LPS, CC, polyI:C or CD40L. LDH activity of the DCs extracts was measured with Lactate dehydrogenase activity assay kit (Sigma).

[5] = tested on: cDCs; assay: IL-10 and IL-12 production of restimulated cDCs in the presence of inhibitors (ELISA); assay type: cell-based, human; conditions: for IL-12 production in cDCs in the presence of inhibitor: after LPS and CC triggering
Method: as §1, §2
Immature DCs were obtained from buffy coats of healthy donors as previously described [Palova-Jelinkova L, Rozkova D, Pecharova B, Bartova J, Sediva A, Tlaskalova-Hogenova H, Spisek R, Tuckova L: Gliadin fragments induce phenotypic and functional maturation of human dendritic cells. J Immunol 2005; 175:7038-7045]. […] Medium and cytokines were replenished on day 3. On day 6, DCs were harvested and seeded in 96-well plates (Nunc) at 1×10^6 cells/ml. On day 7, immature DCs were activated with vacci grade MPLA (2 μg/ml, Cayla-InvivoGen) for 24 hrs. To induce tDCs, DCs were treated with Dex on day 3 (1 μM, Medochemie) and Dex and VitD2-paricalcitol (1.5 ng/ml, Zemplar, Abbott Laboratories) on day 6. Control DCs (cDCs) were cultured without tolerising factors. […]
as §4, with “Cell supernatants were acidified before measuring TGF-β levels according to the manufacturer's instructions.” left out

[6] = tested on: DCs
Method: Peripheral blood mononuclear cells (PBMC) from whole blood of patients were isolated using Ficoll-Paque (GE Healthcare) gradient centrifugation and monocytes were separated by allowing 2 h of cell adhesion in 75-cm2 culture flasks (Nunc). Then, non-adherent cells were washed out and frozen. Dendritic cells (DCs) were generated from monocytes in CellGro medium (CellGenix) containing penicillin and streptomycin (100 U/ml and 100 μg/ml, respectively; Gibco) in the presence of IL-4 (248 IU/ml, CellGenix) and GM-CSF (500 IU/ml, Gentaur) for 6 days. Fresh medium with cytokines was added on day 3. Tolerogenic dendritic cells (tolDCs) were induced by adding Dexamethasone on day 3 (1 μM, Medochemie) and Dexamethasone (1 μM) and vitamin D2 (Zemplar; 1.5 ng/ml, Abbott Laboratories) on day 6. Control DCs (cDCs) were generated without tolerogenic factors. On day 6, tolDCs and cDCs were harvested and seeded into 96-well plates (both 1×106 DCs/ml). […]
Cells were stained with mAb for 30 min in PBS at 4° C., washed and analyzed by LSR Fortessa cell analyzer (BD Biosciences). Data were analyzed using FlowJo software (Tree Star). […] DC viability was assessed with Annexin V-PE (Exbio) plus DAPI (Invitrogen) staining. […]

Compound	ability of inhibitor-pretreated tDCs to stimulate allogeneic T cell proliferation [1]	IL-10 production in tDCs in the presence of inhibitor [2]	IL-12 production in tDCs in the presence of inhibitor [2]	CD86 expression in tDCs in the presence of inhibitor [3]	ILT-3 and PD-L1 expression in tDCs in the presence of inhibitor [3]	lactate generation in Dex/VitD tDCs in the presence of inhibitor [4]	IL-12 production in cDCs in the presence of inhibitor [5]	viability of DCs [6]	PD-L1 expression in the presence of inhibitor ([3]; after LPS stimulation)	IL-10 production in cDCs in the presence of inhibitor ([5]; after LPS restimulation)
O=CC[C@@H](O)[C@H](O)[C@H](O)CO [2-DG, 2-deoxyglucose]	increased partially	markedly decreased IL-10 production	remained unaffected	remained unaffected	failed to up-regulate ILT-3 and PD-L1 molecules	significantly prevented lactate generation				
Cc1ccc(S(=O)(=O)/C=C/C#N)cc1 [Bay 11-7082]		significantly dependent; also recorded: abrogated IL-10 production	did not changed IL-12 production; also recorded: did not affect IL-12 production				markedly down-regulated IL-12 production			
C[C@@H]1C[C@H]2[C@@H]3CCC4=CC(=O)C=C[C@]4(C)[C@@]3(F)[C@@H](O)C[C@]2(C)[C@@]1(O)C(=O)CO [Dex, Dexamethasone]								did not affect the viability of DCs		
COc1cccc(-c2cc(=O)c3ccccc3o2)c1N [PD98059]	increased the ability	significantly dependent		significantly up-regulated CD86 expression					down-regulated PD-L1 expression	
C[S+]([O-])c1ccc(-c2nc(-c3ccncc3)c(-c3ccc(F)cc3)[nH]2)cc1 (centres unmarked) [SB203580]		significantly dependent	did not changed IL-12 production; also recorded: did not affect IL-12 production		down-regulated ILT-3 and PD-L1 expression		markedly down-regulated IL-12 production			
O=[N+]([O-])c1ccc2c(c1)S(=O)(=O)C=C2 [Stattic]	partial restoration	reduced IL-10 production	unaffected	significantly increased CD86 expression	markedly reduced expression		unaffected			down-regulated IL-10 production
C[C@H](/C=C/[C@H](C)C(C)(C)O)[C@H]1CC[C@H]2/C(=C/C=C3C[C@@H](O)C[C@H](O)C3)CCC[C@]12C [VitD2, 19-nor-1,25-dihydroxyvitamin D2]								did not affect the viability of DCs		
